Data set [1] is described as follows: logP determination by HPLC on a reversed-phase column (C18), EEC Directive 79/831 Annex V.A8. The class given is physicochemical. As to conditions: for logP^a): HPLC-MS method a), Table I-T3; for log P: HPLC-MS, reversed-phase column (C18).
The next data set has as its system Rhipicephalus sanguineus. In words: Rhipicephalus sanguineus - in vitro contact tests with adult brown dog ticks. The data set is classed as in vivo. How it is done:
Rhipicephalus sanguineus—In Vitro Contact Tests with Adult Brown Dog Ticks
For the coating of the test tubes, 9 mg of active ingredient are first dissolved in 1 ml of acetone p.a. and then diluted to the desired concentration with acetone p.a. 250 μl of the solution are distributed homogeneously on the inner walls and base of a 25 ml test tube by turning and rocking on an orbital shaker (rocking rotation at 30 rpm for 2 h). With 900 ppm active ingredient solution and internal surface 44.7 cm^2, given homogeneous distribution, an area-based dose of 5 μg/cm^2 is achieved.
After the solvent has evaporated off, the tubes are populated with 5-10 adult dog ticks (Rhipicephalus sanguineus), sealed with a perforated plastic lid and incubated in a horizontal position in the dark at room temperature and ambient humidity. After 48 h, efficacy is determined. To this end, the ticks are knocked to the floor of the tube and incubated on a hotplate at 45-50° C. for not more than 5 min. Ticks which remain motionless on the floor or move in such an uncoordinated manner that they are unable to deliberately avoid the heat by climbing upwards are considered to be dead or moribund.
An efficacy of 100% means that all the ticks were dead or moribund. 0% efficacy means that none of the ticks had been harmed.

Data set [2] concerns Ctenocephalides felis. In words: Ctenocephalides felis - in vitro contact tests with adult cat fleas. The data set is classed as in vivo. As to conditions: application rate 5 μg/cm^2 (=500 g/ha), after 48 h (dead or moribund). The method in brief:
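Acetone solution coated on test-tube inner walls (900 ppm gives 5 μg/cm^2). After drying, 5-10 adult cat fleas added and kept horizontal at room temperature and ambient humidity. At 48 h fleas knocked down; motionless or uncoordinated ones counted dead/moribund, giving % efficacy.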

The subject of another data set is Amblyomma hebraeum. Kind of data set: Amblyomma hebraeum test (tick nymphs, immersion). The class given is in vivo. As to conditions: application rate 100 ppm; tick nymphs immersed for one minute; kill after 42 days. Here is the method: Solvent: dimethyl sulphoxide
To produce an appropriate active ingredient formulation, 10 mg of active ingredient are mixed with 0.5 ml of dimethyl sulphoxide, and the concentrate is diluted with water to the desired concentration.
Tick nymphs (Amblyomma hebraeum) are placed into perforated plastic beakers and immersed in the desired concentration for one minute. The ticks are transferred on filter paper into a Petri dish and stored in a climate-controlled cabinet.
After 42 days, the kill in % is determined. 100% means that all of the ticks have been killed; 0% means that none of the ticks have been killed.

Another data set deals with Boophilus microplus. Kind of data set: Boophilus microplus - injection test. The data set is classed as in vivo. As to conditions: application rate 20 μg/animal; injected into engorged adult female ticks; laying of fertile eggs, after 7 days. The method in brief:
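Steps: dilute compound in DMSO to the desired concentration; inject 1 μl abdominally into 5 engorged adult females; keep in climate-controlled dishes; at 7 days score fertile egg laying, incubating doubtful eggs until hatch at about 42 days.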

Data set [3] relates to Boophilus microplus Parkhurst strain, SP-resistant. In words: Boophilus microplus - dip test. The data set is classed as in vivo. Conditions: application rate 100 ppm; dip of engorged adult female ticks; laying of fertile eggs, after 7 days. The method in brief: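 Adult engorged females of SP-resistant Parkhurst strain (8–10 per tube) fully immersed in compound diluted in water from a DMSO solution. Ticks then kept on filter discs in a climate-controlled room; efficacy scored from fertile egg laying at 7 days, with unclear eggs held about 42 days until hatch (100% = no fertile eggs).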

The subject of data set [4] is Ctenocephalides felis. In words: Ctenocephalides felis - oral test. The data set is classed as in vivo. Conditions: application rate 100 ppm in citrated cattle blood; adult fleas; kill after 2 days. The method in brief: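 Mortality in % was recorded 2 days after about 20 unfed adult cat fleas were allowed to imbibe citrated cattle blood containing the active ingredient through a parafilm membrane. The compound was first taken up in DMSO and then diluted with the blood to the desired concentration.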

In another data set the test system is Lucilia cuprina. Kind of data set: Lucilia cuprina test. The data set is classed as in vivo. Conditions: application rate 100 ppm; L1 larvae in minced horsemeat; kill after 2 days. The essentials:
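About 20 L1 larvae placed on minced horsemeat treated with compound, formulated in DMSO and diluted with water to test concentration. Kill in % scored after 2 days (100% = all larvae dead, 0% = none).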

The subject of a further data set is Musca domestica. In words: Musca domestica test. As to conditions: application rate 100 ppm; adult houseflies; kill after 2 days. The class given is in vivo. The method in brief:
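Percent kill of adult houseflies is recorded 2 days after exposure, where 100% denotes all flies dead and 0% none. Flies (10 per vessel) feed from a sponge carrying sugar solution and the aqueous-diluted DMSO formulation.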

Where [5] appears, read: application rate 5 μg/cm^2, after 48 h (dead or moribund).

Turning to `Cc1cc(C(F)(C(F)(F)F)C(F)(F)F)cc(C)c1-n1cc(-c2ccc(Cl)c(C(=O)NC3(C#N)CC3)c2)cn1` [I-T3-3], in data set [1], the “logP^a)” value was determined as 4.2. In addition, the efficacy (in the data set with Rhipicephalus sanguineus (setting [5]); in the data set with Ctenocephalides felis [2]; in the data set on Amblyomma hebraeum; in the data set on Boophilus microplus; in data set [3]; in the data set with Ctenocephalides felis [4]) was 100% in each case. For the same compound, the efficacy with Lucilia cuprina and in the data set on Musca domestica was 100% each time.

Consider `Cc1cc(C(F)(C(F)(F)F)C(F)(F)F)cc(C)c1-n1cc(-c2cnc(Cl)c(C(=O)NC3CC3)c2)cn1` [I-T3-20], for which the “logP^a)” value in data set [1] is 3.8. Besides, the efficacy (in the data set on Rhipicephalus sanguineus (setting [5]); in the data set with Ctenocephalides felis [2]; in the data set on Amblyomma hebraeum; in the data set on Boophilus microplus; in data set [3]; in the data set with Ctenocephalides felis [4]) was 100% throughout. Further, the efficacy in the data set with Lucilia cuprina and with Musca domestica was 100% in each case.

`Cc1cc(C(F)(C(F)(F)F)C(F)(F)F)cc(C)c1-n1cc(-c2cnc(Cl)c(C(=O)NC3(C#N)CC3)c2)cn1` [I-T3-21]: the “logP^a)” value in data set [1] is 3.7. Also, the efficacy (with Rhipicephalus sanguineus (setting [5]); with Ctenocephalides felis [2]; with Amblyomma hebraeum; in the data set with Boophilus microplus; in data set [3]; in the data set with Ctenocephalides felis [4]) was 100% each time. The efficacy in the data set on Lucilia cuprina and in the data set on Musca domestica was 100% in each case.

As for `O=C(NC1CC1)c1cc(-c2cnn(-c3c(Cl)cc(C(F)(C(F)(F)F)C(F)(F)F)cc3Cl)c2)cnc1Cl` [I-T3-42], the “logP^a)” value in data set [1] is on record as 3.8. Further, the efficacy (with Rhipicephalus sanguineus (setting [5]); in the data set on Ctenocephalides felis [2]; in the data set with Amblyomma hebraeum; in the data set on Boophilus microplus; in data set [3]; in the data set on Ctenocephalides felis [4]) was 100% in each case. For the same compound, the efficacy with Lucilia cuprina and in the data set on Musca domestica was 100% throughout.

Regarding `N#CC1(NC(=O)c2cc(-c3cnn(-c4c(Cl)cc(C(F)(C(F)(F)F)C(F)(F)F)cc4Cl)c3)cnc2Cl)CC1` [I-T3-43], the “logP^a)” value in [1] was found to be 3.8. Besides, the efficacy was determined as 80% in the data set on Rhipicephalus sanguineus (setting [5]); 100% in the data set with Ctenocephalides felis [2]; 100% with Amblyomma hebraeum; 100% with Boophilus microplus; 100% in data set [3]; 100% in the data set on Ctenocephalides felis [4]. In addition, the efficacy with Lucilia cuprina and with Musca domestica was 100% throughout.

Consider `CCc1cc(C(F)(C(F)(F)F)C(F)(F)F)cc(C)c1-n1cc(-c2ccc(Cl)c(C(=O)NC3CC3)c2)cn1` [I-T3-44], for which the “logP^a)” value in data set [1] is 4.7. Also, the efficacy (with Rhipicephalus sanguineus (setting [5]); in the data set on Ctenocephalides felis [2]; with Amblyomma hebraeum; in the data set with Boophilus microplus; in data set [3]; with Ctenocephalides felis [4]) was 100% each time. The compound further had an efficacy in the data set on Lucilia cuprina of 100%.

Take `N#CC1(NC(=O)c2cc(-c3cnn(-c4ccc(C(F)(C(F)(F)F)C(F)(F)F)cc4C(F)(F)F)c3)ccc2Cl)CC1` [I-T3-53]: the “logP^a)” value in data set [1] is 4.3. Moreover, the efficacy in the data set on Rhipicephalus sanguineus (setting [5]) is listed as 100%; in the data set on Amblyomma hebraeum it was 80%; in the data set with Boophilus microplus, 100%; in data set [3] it was 100%; in the data set on Ctenocephalides felis [4], 100%; with Lucilia cuprina, 100%. The compound further had an efficacy with Musca domestica of 100%.

In the case of `Cc1cc(C(F)(C(F)(F)F)C(F)(F)F)cc(C(F)(F)F)c1-n1cc(-c2ccc(Cl)c(C(=O)NC3CC3)c2)cn1` [I-T3-54], the “logP^a)” value in data set [1] is reported as 4.4. Moreover, the efficacy (in the data set with Rhipicephalus sanguineus (setting [5]); in the data set with Ctenocephalides felis [2]; in the data set on Amblyomma hebraeum; with Boophilus microplus; in data set [3]; with Ctenocephalides felis [4]) was 100% in each case. Moreover, the efficacy in the data set with Lucilia cuprina and in the data set on Musca domestica was 100% throughout.

As for `Cc1cc(C(F)(C(F)(F)F)C(F)(F)F)cc(C(F)(F)F)c1-n1cc(-c2ccc(Cl)c(C(=O)NC3(C#N)CC3)c2)cn1` [I-T3-55], the “logP^a)” value in data set [1] was 4.3. Moreover, the efficacy (with Rhipicephalus sanguineus (setting [5]); in the data set on Ctenocephalides felis [2]; with Amblyomma hebraeum; with Boophilus microplus; in [3]; in the data set with Ctenocephalides felis [4]) was 100% each time. In addition, the efficacy with Lucilia cuprina and with Musca domestica was 100% in each case.

As to `CCc1cc(C(F)(C(F)(F)F)C(F)(F)F)ccc1-n1cc(-c2cnc(Cl)c(C(=O)NC3CC3)c2)cn1` [I-T3-104], the log P (as a rule, the decadic logarithm of the partition coefficient of the neutral form, usually between octanol and water) in data set [1] was 4.2. Moreover, the efficacy (in the data set with Rhipicephalus sanguineus (setting [5]); with Amblyomma hebraeum; with Boophilus microplus; in [3]; with Ctenocephalides felis [4]; in the data set on Lucilia cuprina) was 100% in each case. The compound also came in with an efficacy in the data set with Musca domestica of 100%.

For `CCc1cc(C(F)(C(F)(F)F)C(F)(F)F)ccc1-n1cc(-c2cnc(Cl)c(C(=O)NC3(C#N)CC3)c2)cn1` [I-T3-105], the “log P” value in [1] is on record as 4.1. Moreover, the efficacy is 100% in the data set with Rhipicephalus sanguineus (application rate 0.2 μg/cm^2, after 48 h (dead or moribund)); 85% with Amblyomma hebraeum; 100% in the data set on Boophilus microplus; 100% with Ctenocephalides felis [4]; 100% with Lucilia cuprina; 80% in the data set on Musca domestica.

On to `Cc1ncc(-c2cnn(-c3c(Cl)cc(C(F)(C(F)(F)F)C(F)(F)F)cc3C(F)(F)F)c2)cc1C(=O)NC1CC1` [I-T3-124], for which the “log P” value in data set [1] is 3.5. Besides, the efficacy (in the data set with Ctenocephalides felis [2]; with Amblyomma hebraeum; in the data set with Boophilus microplus; in data set [3]; in the data set on Ctenocephalides felis [4]; in the data set on Lucilia cuprina) was 100% throughout. The efficacy with Musca domestica is reported as 100%.

Regarding `Cc1ncc(-c2cnn(-c3c(Cl)cc(C(F)(C(F)(F)F)C(F)(F)F)cc3C(F)(F)F)c2)cc1C(=O)N(C)C1(C#N)CC1` [I-T3-131], the “log P” value in [1] was 3.9. Besides, the efficacy (in the data set with Ctenocephalides felis [2]; in the data set with Amblyomma hebraeum; in the data set on Boophilus microplus; in data set [3]; in the data set on Ctenocephalides felis [4]; in the data set on Lucilia cuprina) was 100% in each case. This compound displayed an efficacy in the data set with Musca domestica of 100%.

`Cc1cc(C(F)(C(F)(F)F)C(F)(F)F)cc(C)c1-c1cnn(-c2cnc(Cl)c(C(=O)NC3(C#N)CC3)c2)c1` [I-T4-4]: the logP – broadly, the decadic logarithm of the partition coefficient of the neutral form, usually between octanol and water – in data set [1] (HPLC, reversed-phase C18, acetonitrile/water with formic acid, 55° C.) amounted to 4.3. For the same compound, the efficacy (in the data set with Rhipicephalus sanguineus (setting [5]); in the data set with Ctenocephalides felis [2]; in the data set with Amblyomma hebraeum; with Boophilus microplus; in data set [3]; in the data set with Ctenocephalides felis [4]) was 100% throughout. This compound had an efficacy in the data set with Lucilia cuprina of 100%.

The values are drawn from patent US9758485B2, “Compounds for controlling arthropods” (priority 2013, dated 2017).
